Experimental data published in patent US4251444A, “Thiazepino-[4,3-b]-isoquinoline-1,5-dione derivatives and precursors” (American Home Products Corporation, priority 1980, dated 1981).

Tested on: male spontaneously hypertensive rats
Assay: blood pressure lowering, systolic pressure by Decker Caudal Plethysmograph
Format: in vivo
Details: four hours after administration of a 50 milligram dose; standard experimental rat, oral
Description: The compounds tested were administered orally and blood pressure was read prior to and at 1.5, 4 and 24 hours after drug administration.

CC(CSC(=O)c1ccccc1)C(=O)N1Cc2ccccc2CC1C(=O)O (single isomer, unassigned) [Example 4, 2-(3-Benzoylthio-2-methylpropanoyl)-1,2,3,4-tetrahydroisoquinoline-3-carboxylic acid]
reduction of blood pressure: 29 millimeters
